PMC5880497, “Interaction of lecithin:cholesterol acyltransferase with lipid surfaces and apolipoprotein A-I-derived peptides” (Journal of Lipid Research, 2018)
No end group written: not given here.

Assays:
[1] = target: T1, glycosylated human LCAT protein (Homo sapiens, UniProt P04180); experiment: MP-SPR binding of LCAT to immobilised biotin-labelled apoA-I-derived peptides; details: N-terminal biotin-peptide on streptavidin-coated sensor, LCAT 156-5,000 nM serial injections of 15 min, 10 μl/min, buffer A pH 7.4, 293 K, Langmuir fit
T1 construct: purchased Sino Biological Inc., Beijing, China; host or cells: human cells
T1 sequence (P04180 25-440): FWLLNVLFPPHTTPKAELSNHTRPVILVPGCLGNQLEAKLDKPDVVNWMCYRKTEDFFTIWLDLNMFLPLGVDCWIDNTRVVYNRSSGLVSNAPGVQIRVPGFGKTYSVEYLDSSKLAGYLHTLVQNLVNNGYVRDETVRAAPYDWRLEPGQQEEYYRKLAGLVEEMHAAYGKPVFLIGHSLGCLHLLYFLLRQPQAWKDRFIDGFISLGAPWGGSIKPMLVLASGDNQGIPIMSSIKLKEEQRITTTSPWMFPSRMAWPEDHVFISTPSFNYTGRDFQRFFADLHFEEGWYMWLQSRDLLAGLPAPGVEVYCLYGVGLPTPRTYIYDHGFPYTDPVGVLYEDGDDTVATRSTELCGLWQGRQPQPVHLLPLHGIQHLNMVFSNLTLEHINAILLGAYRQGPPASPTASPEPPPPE
Description: POPC dissolved in chloroform (25 mg/ml) was obtained from Avanti Polar Lipids (Alabaster, AL). Calcium chloride, HEPES, CHAPS, sodium chloride, EDTA, sodium azide, and potassium dihydrogen phosphate were obtained from Merck Sigma-Aldrich (Darmstadt, Germany). Potassium chloride was obtained from Honeywell Riedel de Haën (Seelz, Germany); disodium hydrogen phosphate was obtained from Fisher Scientific (Hampton, NH). Peptides and N-terminal biotin-labeled peptides were synthesized by Peptide Protein Research Ltd., Hampshire, UK and had the following amino acid sequences: i) 122-142, […]; ii) 135-155, […]; iii) 150-170, […]; iv) 150-170-Y166F, […]; and v) 185-205, […]. Lyophilized glycosylated human LCAT protein (Sino Biological Inc., Beijing, China; a recombinant protein produced in human cells) was reconstituted with 400 μl of ultrapure sterile water to yield LCAT at 5 μM in PBS (manufacturer specifications). Ultrapure water used for preparation of the buffer and in all measurements was prepared with a Milli-Q purification system, having a resistivity of 18 MΩ·cm and TOC level of <5 ppm. The following buffers were used: 20 mM PBS, 1 mM EDTA, 1 mM Na azide (pH 7.4) (buffer A); and 20 mM HEPES and 150 mM NaCl (pH 7.4) (buffer B).
Measurements were performed with a multi-parameter SPR Navi™ 200 (BioNavis Ltd., Tampere, Finland) instrument. The setup was equipped with two incident laser wavelengths, 670 nm and 785 nm, two independent flow channels, inlet tubing and outlet (waste) tubing, and an autosampler. Both of the flow channels were measured simultaneously with 670 nm and 785 nm incident light. The measurement temperature was kept constant at 293° K. Biotin-coated SPR sensors (Bionavis Ltd.) were placed in the flow-cell. The flow rates used for the streptavidin interaction with biotin, biotin-peptides with streptavidin, and for LCAT interaction with immobilized peptides were 10 μl/min. SPR spectra were recorded after introduction of buffer A into the flow-cell for 10–30 min until a stable baseline was achieved, after which the surface was fully saturated with streptavidin during a 10 min serial injection at 1.9 μM to saturate the SPR sensor. It was observed that after 5 min the SPR sensor was fully coated with streptavidin; therefore, the method was adapted to 5 min. In the second phase of the measurement, in DMSO solubilized biotin-peptides with a final concentration of 100 μM were injected in parallel into both flow channels for 7 min at […] to cover the SPR sensor fully, i.e., until all streptavidin bindings sites were fully occupied. Parallel injections ensured that two peptides were analyzed simultaneously. Increasing concentrations of LCAT were then injected into both channels via serial injection, to ensure the lowest variation of LCAT injection for 15 min at increasing concentrations (156, 313, 625, 1250, 2,500, and 5,000 nM) to determine the binding constant of the LCAT-peptide complexes. The data was fitted in OriginPro (v. 8.6, OriginLab Corp., Northampton, MA) according to the Langmuir model to obtain the dissociation constants (Kd) and the responses of saturated binding (Rmax): R=Rmax/1+Kd/c
where R is the final response after each injection and c is the concentration of LCAT in each injection.
To also elucidate the specificity of different peptide regions against LCAT, we carried out MP-SPR experiments to determine dissociation constants (Kd) for the LCAT-peptide complexes. […]

[2] = LCAT with small unilamellar vesicles in the absence of apolipoproteins; cited from earlier work
From the text: To assess the possibility of the second hypothesis, we calculated the binding free-energies for LCAT in open and closed states. As shown by the PMF profiles in Fig. 5A, the lid-open state (ΔGwater→lipid = −28 ± 1 kJ/mol) is not able to bind so strongly to lipids when compared with the lid-closed state (ΔGwater→lipid = −34 ± 1 kJ/mol), although the previous findings indicated a deeper lipid interaction for the open state (Fig. 3B). The value for the closed state is well in agreement with existing experimentally determined dissociation constants giving binding a free-energy value of −36 kJ/mol f ...

[3] = QCM binding of LCAT, peptides or LCAT plus peptide to a POPC supported lipid bilayer; details: POPC SLB, LCAT 37.5 nM in buffer A, without apoA-I or peptide
Description: Prior to the QCM measurements, the PBS buffer formed after reconstitution of LCAT was exchanged for buffer A due to the extremely high sensitivity of the QCM method to slight differences in the ionic strength of the background buffer. The LCAT solution was placed in an Amicon Ultra-0.5 10K centrifugal filter device (Merck Millipore Ltd., Tullagreen Carrigtohill, Ireland) and equal volumes of buffer A were filtered through 10 times at 14,000 g, after which 400 μl of buffer A were added to fully recover LCAT at 5 μM. The peptides were dissolved into buffer A at a final concentration of 100 μM. An impedance-based QCM instrument (KSV Instruments Ltd., Helsinki, Finland) was used for the measurements. The measurement temperature was kept constant at 293° K. Before measurements, silica-coated QCM sensors (Q-Sense Inc./BiolinScientific, Västra Frölunda, Sweden) were first flushed with 70% ethanol and ultrapure water, dried under nitrogen flow, and finally oxygen plasma treated (PDC-002; Harrick Plasma, Ithaca, NY) for 5 min at 29.6 W and 133-173 Pa. Samples were injected into the measurement chamber with a peristaltic pump system (Ismatec/Cole-Parmer GmbH, Wertheim, Germany). […] Neither LCAT nor peptides induced changes in viscoelastic properties of the bilayer, which was seen as negligible changes in the recorded energy dissipation. […]

DRARAHVDALRTHLAPFSDEL [150-170-Y166F] gave a Kd [1] of 1.84 µM.
In the case of DRARAHVDALRTHLAPYSDEL [150-170], the Kd [1] is reported as 0.29 µM.
Work on “GGARLAEYHAKATEHLSTLSE [185-205, reference compound]” yielded a Kd [1] of 4.69 µM.
HELQEKLSPLGEEMRDRARAH [135-155] showed a Kd [1] of 0.819 µM.
In the case of LRAELQEGARQKLHELQEKLS [122-142], the Kd [1] is reported as 1.03 µM.
In the case of “lecithin:cholesterol acyltransferase [LCAT]”, the “Binding free-energy from experimentally determined dissociation constants” value [2] is given as -8.6 kcal/mol and the “Binding of LCAT alone to the POPC membrane” value [3] is given as “binds to the POPC membrane without apoA-I”.
